Source: the kinase profiling compilation of Christmann-Franck et al. (2016)

How the values were obtained:
BRSK2 (human) = BRSK2 (human) (UniProt Q8IWQ3)
CSK (human) = CSK (human) (UniProt P41240)
CaMK1 (human) = CaMK1 (human) (UniProt Q14012)
EPHA2 (human) = EPHA2 (human) (UniProt P29317)
FLT1 (human) = FLT1 (human) (UniProt P17948)
HIPK2 (human) = HIPK2 (human) (UniProt Q9H2X6)
LCK (mouse) = conditions: accession and sequence are those of the human protein
MAPK1 (human) = MAPK1 (human) (UniProt P28482)
MAPK1 (human), sequence (P28482 whole entry, looked up): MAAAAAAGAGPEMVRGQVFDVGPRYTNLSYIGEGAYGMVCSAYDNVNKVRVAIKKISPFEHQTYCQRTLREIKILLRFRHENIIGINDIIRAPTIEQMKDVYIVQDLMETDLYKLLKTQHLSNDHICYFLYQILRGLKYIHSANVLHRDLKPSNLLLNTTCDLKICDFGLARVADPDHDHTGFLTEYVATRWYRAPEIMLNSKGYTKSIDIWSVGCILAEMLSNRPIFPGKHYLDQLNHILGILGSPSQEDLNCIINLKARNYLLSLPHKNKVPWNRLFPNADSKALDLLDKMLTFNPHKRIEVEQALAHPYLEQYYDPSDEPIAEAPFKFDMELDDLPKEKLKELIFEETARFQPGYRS

MAPK11 (human) = MAPK11 (human) (UniProt Q15759)
MAPK11 (human), sequence (Q15759 whole entry, looked up): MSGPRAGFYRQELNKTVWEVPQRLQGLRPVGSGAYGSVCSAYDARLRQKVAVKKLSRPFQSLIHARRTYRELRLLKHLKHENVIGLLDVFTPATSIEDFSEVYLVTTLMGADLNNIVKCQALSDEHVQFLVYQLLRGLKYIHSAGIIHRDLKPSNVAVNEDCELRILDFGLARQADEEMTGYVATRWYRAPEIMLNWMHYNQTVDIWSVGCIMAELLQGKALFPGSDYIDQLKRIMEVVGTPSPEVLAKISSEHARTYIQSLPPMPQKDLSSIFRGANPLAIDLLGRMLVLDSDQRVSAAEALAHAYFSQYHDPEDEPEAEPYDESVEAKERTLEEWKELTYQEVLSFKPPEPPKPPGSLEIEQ

PAK4 (human) = PAK4 (human) (UniProt O96013)
PIM1 (human) = PIM1 (human) (UniProt P11309)
PRKCA (human) = PRKCA (human) (UniProt P17252)
RPS6KA1 KD1 KD2 (human) = RPS6KA1 KD1 KD2 (human) (UniProt Q15418)
[1] = system: SGK1 (human), O00141 [S422D]
SGK1 (human), O00141 [S422D], sequence (O00141 whole entry S422D, looked up): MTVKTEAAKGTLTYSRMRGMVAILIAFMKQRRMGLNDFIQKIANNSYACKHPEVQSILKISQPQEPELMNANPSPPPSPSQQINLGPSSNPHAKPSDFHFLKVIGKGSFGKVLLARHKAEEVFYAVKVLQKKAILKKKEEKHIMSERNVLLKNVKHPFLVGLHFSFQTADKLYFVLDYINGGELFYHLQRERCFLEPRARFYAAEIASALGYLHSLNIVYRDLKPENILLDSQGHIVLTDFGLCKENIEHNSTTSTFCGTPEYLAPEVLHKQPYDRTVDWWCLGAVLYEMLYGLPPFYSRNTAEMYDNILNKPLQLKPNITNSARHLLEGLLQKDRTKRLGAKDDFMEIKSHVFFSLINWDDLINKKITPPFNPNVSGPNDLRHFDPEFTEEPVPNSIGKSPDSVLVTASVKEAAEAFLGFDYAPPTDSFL

[2] = system: ABL1 (human), P00519 [E255K]; test: KINOMEscan competition binding; conditions: compound 10.0 µM
[3] = system: ABL1 (human), P00519 [Y253F]; test: KINOMEscan competition binding; conditions: compound 10.0 µM
[4] = system: EGFR (human), P00533 [746-750 del]; test: KINOMEscan competition binding; conditions: compound 10.0 µM
[5] = system: EGFR (human), P00533 [G719C]; test: KINOMEscan competition binding; conditions: compound 10.0 µM
[6] = system: EGFR (human), P00533 [G719S]; test: KINOMEscan competition binding; conditions: compound 10.0 µM
[7] = system: EGFR (human), P00533 [L861Q]; test: KINOMEscan competition binding; conditions: compound 10.0 µM
[8] = system: EGFR (human), P00533 [P753S; 747-752 del]; test: KINOMEscan competition binding; conditions: compound 10.0 µM
[9] = system: KIT (human), P10721 [V559D/V654A]; test: KINOMEscan competition binding; conditions: compound 10.0 µM
MARK2 (human) = MARK2 (human) (UniProt Q7KZI7); test: KINOMEscan competition binding; conditions: compound 10.0 µM
PIK3CA (human) = PIK3CA (human) (UniProt P42336); test: KINOMEscan competition binding; conditions: compound 10.0 µM
[10] = system: PIK3CA (human), P42336 [H1047Y]; test: KINOMEscan competition binding; conditions: compound 10.0 µM
PIK3CG (human) = PIK3CG (human) (UniProt P48736); test: KINOMEscan competition binding; conditions: compound 10.0 µM

CaMK1 (human), sequence (Q14012 whole entry, looked up): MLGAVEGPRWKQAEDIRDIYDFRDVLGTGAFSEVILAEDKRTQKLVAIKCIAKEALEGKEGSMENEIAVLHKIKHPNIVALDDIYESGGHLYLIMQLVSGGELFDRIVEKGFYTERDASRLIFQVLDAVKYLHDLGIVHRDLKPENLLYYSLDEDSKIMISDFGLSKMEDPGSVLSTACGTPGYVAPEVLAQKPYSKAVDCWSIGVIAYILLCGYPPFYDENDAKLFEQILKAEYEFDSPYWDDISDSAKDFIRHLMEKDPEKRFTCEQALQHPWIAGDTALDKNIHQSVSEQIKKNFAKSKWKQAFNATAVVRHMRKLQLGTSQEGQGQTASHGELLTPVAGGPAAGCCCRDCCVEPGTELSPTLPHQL
CSK (human), sequence (P41240 whole entry, looked up): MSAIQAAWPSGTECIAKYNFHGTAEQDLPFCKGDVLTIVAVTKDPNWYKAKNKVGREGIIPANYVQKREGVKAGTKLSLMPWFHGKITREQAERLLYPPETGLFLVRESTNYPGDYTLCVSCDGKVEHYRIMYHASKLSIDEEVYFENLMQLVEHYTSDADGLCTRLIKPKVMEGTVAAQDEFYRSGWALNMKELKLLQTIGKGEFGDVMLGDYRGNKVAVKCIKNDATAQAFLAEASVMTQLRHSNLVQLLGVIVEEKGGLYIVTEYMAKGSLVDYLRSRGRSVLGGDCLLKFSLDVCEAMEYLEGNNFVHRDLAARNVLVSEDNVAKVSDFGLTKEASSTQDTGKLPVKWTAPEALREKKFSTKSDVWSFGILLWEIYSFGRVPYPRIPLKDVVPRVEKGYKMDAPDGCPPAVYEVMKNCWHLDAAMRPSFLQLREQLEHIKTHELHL
FLT1 (human), sequence (P17948 whole entry, looked up): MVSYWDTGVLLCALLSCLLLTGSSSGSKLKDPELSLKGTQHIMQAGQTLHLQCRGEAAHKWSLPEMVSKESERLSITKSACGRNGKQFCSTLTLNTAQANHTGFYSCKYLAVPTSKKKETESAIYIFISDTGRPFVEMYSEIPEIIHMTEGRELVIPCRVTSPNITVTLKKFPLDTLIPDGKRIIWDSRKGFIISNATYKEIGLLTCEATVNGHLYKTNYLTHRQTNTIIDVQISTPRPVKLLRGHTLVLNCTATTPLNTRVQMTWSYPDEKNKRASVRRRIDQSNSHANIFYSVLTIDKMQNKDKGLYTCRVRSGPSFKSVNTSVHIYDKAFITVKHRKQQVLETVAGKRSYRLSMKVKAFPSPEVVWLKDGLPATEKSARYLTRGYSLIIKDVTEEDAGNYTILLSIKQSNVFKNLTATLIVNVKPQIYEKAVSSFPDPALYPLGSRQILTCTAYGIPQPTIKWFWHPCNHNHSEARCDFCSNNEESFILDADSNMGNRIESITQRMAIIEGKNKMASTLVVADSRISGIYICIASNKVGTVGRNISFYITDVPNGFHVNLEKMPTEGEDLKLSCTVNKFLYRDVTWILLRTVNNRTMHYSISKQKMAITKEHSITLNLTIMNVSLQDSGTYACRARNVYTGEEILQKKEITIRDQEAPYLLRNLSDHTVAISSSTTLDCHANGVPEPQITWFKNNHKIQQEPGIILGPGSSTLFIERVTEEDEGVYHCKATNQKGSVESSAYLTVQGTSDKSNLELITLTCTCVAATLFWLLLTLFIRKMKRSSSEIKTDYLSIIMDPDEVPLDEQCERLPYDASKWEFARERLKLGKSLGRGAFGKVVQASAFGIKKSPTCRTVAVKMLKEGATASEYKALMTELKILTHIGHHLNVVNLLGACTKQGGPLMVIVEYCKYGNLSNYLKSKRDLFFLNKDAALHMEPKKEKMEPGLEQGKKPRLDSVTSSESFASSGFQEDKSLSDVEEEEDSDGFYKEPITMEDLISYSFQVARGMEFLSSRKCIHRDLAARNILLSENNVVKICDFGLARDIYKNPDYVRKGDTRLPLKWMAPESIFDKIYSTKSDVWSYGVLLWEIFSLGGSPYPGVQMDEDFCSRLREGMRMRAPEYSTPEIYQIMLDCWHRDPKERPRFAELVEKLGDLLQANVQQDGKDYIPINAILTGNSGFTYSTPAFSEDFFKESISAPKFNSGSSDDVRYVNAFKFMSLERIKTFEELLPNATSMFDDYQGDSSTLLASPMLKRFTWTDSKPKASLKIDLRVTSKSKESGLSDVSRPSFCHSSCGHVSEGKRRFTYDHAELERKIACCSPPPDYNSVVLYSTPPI
BRSK2 (human), sequence (Q8IWQ3 whole entry, looked up): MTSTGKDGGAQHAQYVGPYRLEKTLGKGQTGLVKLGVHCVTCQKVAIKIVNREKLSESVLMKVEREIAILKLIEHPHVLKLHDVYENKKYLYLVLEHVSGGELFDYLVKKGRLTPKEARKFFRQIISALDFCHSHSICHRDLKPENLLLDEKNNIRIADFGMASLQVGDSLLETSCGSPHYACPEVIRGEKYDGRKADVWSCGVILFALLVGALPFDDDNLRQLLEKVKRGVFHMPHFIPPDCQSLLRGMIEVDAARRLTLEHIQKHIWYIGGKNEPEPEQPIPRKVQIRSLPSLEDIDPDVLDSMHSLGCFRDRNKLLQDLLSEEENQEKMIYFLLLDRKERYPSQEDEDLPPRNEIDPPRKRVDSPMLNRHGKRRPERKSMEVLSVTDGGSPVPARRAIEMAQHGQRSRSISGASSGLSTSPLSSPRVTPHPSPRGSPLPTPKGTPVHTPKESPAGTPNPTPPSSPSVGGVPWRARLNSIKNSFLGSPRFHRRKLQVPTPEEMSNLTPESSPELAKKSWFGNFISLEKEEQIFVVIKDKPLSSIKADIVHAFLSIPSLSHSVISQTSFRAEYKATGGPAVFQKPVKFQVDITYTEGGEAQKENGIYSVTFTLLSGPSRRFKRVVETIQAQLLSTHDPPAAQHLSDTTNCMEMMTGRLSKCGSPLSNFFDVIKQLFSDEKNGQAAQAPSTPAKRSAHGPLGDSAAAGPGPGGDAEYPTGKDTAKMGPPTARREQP
EPHA2 (human), sequence (P29317 whole entry, looked up): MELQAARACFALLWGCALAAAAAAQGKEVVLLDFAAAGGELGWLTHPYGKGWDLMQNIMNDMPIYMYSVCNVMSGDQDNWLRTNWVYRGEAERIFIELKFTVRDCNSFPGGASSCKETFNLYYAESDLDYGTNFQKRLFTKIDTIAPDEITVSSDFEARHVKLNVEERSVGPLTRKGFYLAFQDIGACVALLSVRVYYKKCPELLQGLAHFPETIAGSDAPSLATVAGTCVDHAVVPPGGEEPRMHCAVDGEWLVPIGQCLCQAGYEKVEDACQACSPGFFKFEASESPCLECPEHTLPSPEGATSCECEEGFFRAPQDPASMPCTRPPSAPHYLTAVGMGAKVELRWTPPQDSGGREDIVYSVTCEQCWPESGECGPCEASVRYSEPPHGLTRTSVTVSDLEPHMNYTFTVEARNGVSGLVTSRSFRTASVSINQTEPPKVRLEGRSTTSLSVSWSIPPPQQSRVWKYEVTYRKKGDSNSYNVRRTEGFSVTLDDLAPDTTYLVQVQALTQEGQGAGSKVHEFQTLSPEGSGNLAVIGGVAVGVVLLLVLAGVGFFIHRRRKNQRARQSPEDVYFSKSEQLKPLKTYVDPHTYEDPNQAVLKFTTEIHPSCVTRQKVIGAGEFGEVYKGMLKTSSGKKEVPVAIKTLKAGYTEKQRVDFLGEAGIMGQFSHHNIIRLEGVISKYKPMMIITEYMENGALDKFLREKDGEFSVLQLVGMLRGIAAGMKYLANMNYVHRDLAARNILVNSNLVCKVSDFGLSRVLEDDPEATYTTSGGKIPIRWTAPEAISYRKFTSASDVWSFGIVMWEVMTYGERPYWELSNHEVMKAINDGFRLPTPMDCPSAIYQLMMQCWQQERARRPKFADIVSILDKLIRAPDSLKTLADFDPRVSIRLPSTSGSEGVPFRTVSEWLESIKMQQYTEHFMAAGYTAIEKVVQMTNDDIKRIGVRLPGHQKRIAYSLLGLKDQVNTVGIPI

Structure (SMILES): CC(C)n1nc(-c2cc3cc(O)ccc3[nH]2)c2c(N)ncnc21
- per cent of control (BRSK2 (human); compound 1.0 µM): 26%
- per cent of control (BRSK2 (human); compound 10.0 µM): 4%
- per cent of control (CSK (human); compound 1.0 µM): 52%
- per cent of control (CSK (human); compound 10.0 µM): 34%
- per cent of control (CaMK1 (human); compound 1.0 µM): 80%
- per cent of control (CaMK1 (human); compound 10.0 µM): 33%
- per cent of control (EPHA2 (human); compound 1.0 µM): 12%
- per cent of control (EPHA2 (human); compound 10.0 µM): 3%
- per cent of control (FLT1 (human); compound 1.0 µM): 11%
- per cent of control (FLT1 (human); compound 10.0 µM): 2%
- per cent of control (HIPK2 (human); compound 1.0 µM): 26%
- per cent of control (HIPK2 (human); compound 10.0 µM): 7%
- per cent of control (LCK (mouse); compound 1.0 µM): 13%
- per cent of control (LCK (mouse); compound 10.0 µM): 4%
- per cent of control (MAPK1 (human); compound 1.0 µM): 106%
- per cent of control (MAPK1 (human); compound 10.0 µM): 88%
- per cent of control (MAPK11 (human); compound 1.0 µM): 91%
- per cent of control (MAPK11 (human); compound 10.0 µM): 77%
- per cent of control (PAK4 (human); compound 1.0 µM): 88%
- per cent of control (PAK4 (human); compound 10.0 µM): 28%
- per cent of control (PIM1 (human); compound 1.0 µM): 74%
- per cent of control (PIM1 (human); compound 10.0 µM): 21%
- per cent of control (PRKCA (human); compound 1.0 µM): 13%
- per cent of control (PRKCA (human); compound 10.0 µM): 9%
- per cent of control (RPS6KA1 KD1 KD2 (human); compound 1.0 µM): 53%
- per cent of control (RPS6KA1 KD1 KD2 (human); compound 10.0 µM): 19%
- per cent of control ([1]; compound 1.0 µM): 85%
- per cent of control ([1]; compound 10.0 µM): 69%

Structure (SMILES): COc1ccc(-c2ccc3c(N4CCOCC4)nc(N4C[C@@H](C)O[C@@H](C)C4)nc3n2)cc1CO
- per cent of control (BRSK2 (human); compound 1.0 µM): 90%
- per cent of control (BRSK2 (human); compound 10.0 µM): 72%
- per cent of control (CSK (human); compound 1.0 µM): 90%
- per cent of control (CSK (human); compound 10.0 µM): 99%
- per cent of control (CaMK1 (human); compound 1.0 µM): 96%
- per cent of control (CaMK1 (human); compound 10.0 µM): 101%
- per cent of control (EPHA2 (human); compound 1.0 µM): 108%
- per cent of control (EPHA2 (human); compound 10.0 µM): 96%
- per cent of control (FLT1 (human); compound 1.0 µM): 92%
- per cent of control (FLT1 (human); compound 10.0 µM): 92%
- per cent of control (HIPK2 (human); compound 1.0 µM): 89%
- per cent of control (HIPK2 (human); compound 10.0 µM): 89%
- per cent of control (LCK (mouse); compound 1.0 µM): 69%
- per cent of control (LCK (mouse); compound 10.0 µM): 104%
- per cent of control (MAPK1 (human); compound 1.0 µM): 102%
- per cent of control (MAPK1 (human); compound 10.0 µM): 92%
- per cent of control (MAPK11 (human); compound 1.0 µM): 106%
- per cent of control (MAPK11 (human); compound 10.0 µM): 83%
- per cent of control (PAK4 (human); compound 1.0 µM): 11%
- per cent of control (PAK4 (human); compound 10.0 µM): 75%
- per cent of control (PIM1 (human); compound 1.0 µM): 89%
- per cent of control (PIM1 (human); compound 10.0 µM): 98%
- per cent of control (PRKCA (human); compound 1.0 µM): 106%
- per cent of control (PRKCA (human); compound 10.0 µM): 86%
- per cent of control (RPS6KA1 KD1 KD2 (human); compound 1.0 µM): 100%
- per cent of control (RPS6KA1 KD1 KD2 (human); compound 10.0 µM): 86%
- per cent of control ([1]; compound 1.0 µM): 76%
- per cent of control ([1]; compound 10.0 µM): 64%
- kinase still bound, per cent of control [2]: 100%
- kinase still bound, per cent of control [3]: 100%
- kinase still bound, per cent of control [4]: 100%
- kinase still bound, per cent of control [5]: 100%
- kinase still bound, per cent of control [6]: 100%
- kinase still bound, per cent of control [7]: 83%
- kinase still bound, per cent of control [8]: 100%
- kinase still bound, per cent of control [9]: 100%
- kinase still bound, per cent of control (MARK2 (human)): 94%
- kinase still bound, per cent of control (PIK3CA (human)): 2.5%
- kinase still bound, per cent of control [10]: 3.2%
- kinase still bound, per cent of control (PIK3CG (human)): 23%
